Type in all cases: biochemical
One test concerns the target T1, mTORC (Homo sapiens, UniProt P42345).
T1 construct: purchased Invitrogen
The test is described as follows: In-vitro mTORC inhibition assay. As for the experimental part: The compounds described herein can be tested against recombinant mTOR (Invitrogen) in an assay containing 50 mM HEPES, pH 7.5, 1 mM EGTA, 10 mM MgCl2, 2.5 mM, 0.01% Tween, 10 μM ATP (2.5 μCi of […]), and 3 μg/mL BSA. Rat recombinant PHAS-1/4EBP1 (Calbiochem; 2 mg/mL) is used as a substrate. Reactions are terminated by spotting onto nitrocellulose, which is washed with 1M NaCl/1% phosphoric acid (approximately 6 times, 5-10 minutes each). Sheets are dried and the transferred radioactivity quantitated by phosphorimaging.
Other kits or systems for assaying mTOR activity are commercially available. For instance, one can use Invitrogen's LanthaScreen™ Kinase assay to test the inhibitors of mTOR disclosed herein. This assay is a time resolved FRET platform that measures the phosphorylation of GFP labeled 4EBP1 by mTOR kinase. The kinase reaction is performed in a white 384 well microtitre plate. The total reaction volume is 20 ul per well and the reaction buffer composition is 50 mM HEPES pH7.5, 0.01% Polysorbate 20, 1 mM EGTA, 10 mM MnCl2, and 2 mM DTT. In the first step, each well receives 2 ul of test compound in 20% dimethylsulphoxide resulting in a 2% DMSO final concentration. Next, 8 ul of mTOR diluted in reaction buffer is added per well for a 60 ng/ml final concentration. To start the reaction, 10 ul of an ATP/GFP-4EBP1 mixture (diluted in reaction buffer) is added per well for a final concentration of 10 uM ATP and 0.5 uM GFP-4EBP1. The plate is sealed and incubated for 1 hour at room temperature. The reaction is stopped by adding 10 ul per well of a Tb-anti-pT46 4EBP1 antibody/EDTA mixture (diluted in TR-FRET buffer) for a final concentration of 1.3 nM antibody and 6.7 mM EDTA. The plate is sealed, incubated for 1 hour at room temperature, and then read on a plate reader set up for LanthaScreen™ TR-FRET. Data is analyzed and IC50s are generated using GraphPad Prism 5.

In the next test the target is T2, PI3K α (Homo sapiens, UniProt P42336).
T2 construct: purchased Upstate
The test is described as follows: In-vitro PI3K α inhibition assay. As for the experimental part:
(§1) Class I PI3-Ks can be either purchased (p110α/p85α, p110β/p85α, p110β/p85α from Upstate, and p110γ from Sigma) or expressed as previously described (Knight et al., 2004). IC50 values are measured using either a standard TLC assay for lipid kinase activity (described below) or a high-throughput membrane capture assay. Kinase reactions are performed by preparing a reaction mixture containing kinase, inhibitor (2% DMSO final concentration), buffer (25 mM HEPES, pH 7.4, 10 mM MgCl2), and freshly sonicated phosphatidylinositol ([…]). Reactions are initiated by the addition of ATP containing 10 μCi of γ-32P-ATP to a final concentration 10 or 100 μM and allowed to proceed for 5 minutes at room temperature. For TLC analysis, reactions are then terminated by the addition of 105 μl 1N HCl followed by 160 μl CHCl3:MeOH (1:1). The biphasic mixture is vortexed, briefly centrifuged, and the organic phase is transferred to a new tube using a gel loading pipette tip precoated with CHCl3. This extract is spotted on TLC plates and developed for 3-4 hours in a 65:35 solution of n-propanol:1M acetic acid. The TLC plates are then dried, exposed to a phosphorimager screen (Storm, Amersham), and quantitated. For each compound, kinase activity is measured at 10-12 inhibitor concentrations representing two-fold dilutions from the highest concentration tested (typically, 200 μM).
Other commercial kits or systems for assaying PI3-K activities are available. The commercially available kits or systems can be used to screen for inhibitors and/or agonists of PI3-Ks including but not limited to PI3-Kinase α, β, δ, and γ. An exemplary system is PI3-Kinase (human) HTRF™ Assay from Upstate. […] Briefly, the assay is a time resolved FRET assay that indirectly measures PI3 product formed by the activity of a PI3-K. The kinase reaction is performed in a microtitre plate (e.g., a 384 well microtitre plate). […] The plate is sealed, incubated for 1 hour at room temperature, and then read on an appropriate plate reader. Data is analyzed and IC50s are generated using GraphPad Prism 5.

The target of the next test is T3, PI3K δ (Homo sapiens, UniProt O00329).
T3 construct: purchased Upstate
The experiment in a line: In-vitro PI3K δ inhibition assay. Here is the method:
as §1, with “The biphasic mixture is vortexed, briefly centrifuged, and the organic phase is transferred to a new tube using a gel loading pipette tip precoated with CHCl3. This extract is spotted on TLC plates and developed for 3-4 hours in a 65:35 solution of n-propanol:1M acetic acid.” left out
(§2) Other commercial kits or systems for assaying PI3-K activities are available. […] The plate is sealed, incubated for 1 hour at room temperature, and then read on an appropriate plate reader. Data is analyzed and IC50s are generated using GraphPad Prism 5.

For a further test, the target named is T4, PI3K β (Homo sapiens, UniProt P42338).
T4 construct: purchased Upstate
The test is described as follows: In-vitro PI3K β inhibition assay. As for the experimental part:
as §1, with “The biphasic mixture is vortexed, briefly centrifuged, and the organic phase is transferred to a new tube using a gel loading pipette tip precoated with CHCl3. This extract is spotted on TLC plates and developed for 3-4 hours in a 65:35 solution of n-propanol:1M acetic acid.” left out
as §2

T1 sequence (P42345 1360-2549 limits assumed): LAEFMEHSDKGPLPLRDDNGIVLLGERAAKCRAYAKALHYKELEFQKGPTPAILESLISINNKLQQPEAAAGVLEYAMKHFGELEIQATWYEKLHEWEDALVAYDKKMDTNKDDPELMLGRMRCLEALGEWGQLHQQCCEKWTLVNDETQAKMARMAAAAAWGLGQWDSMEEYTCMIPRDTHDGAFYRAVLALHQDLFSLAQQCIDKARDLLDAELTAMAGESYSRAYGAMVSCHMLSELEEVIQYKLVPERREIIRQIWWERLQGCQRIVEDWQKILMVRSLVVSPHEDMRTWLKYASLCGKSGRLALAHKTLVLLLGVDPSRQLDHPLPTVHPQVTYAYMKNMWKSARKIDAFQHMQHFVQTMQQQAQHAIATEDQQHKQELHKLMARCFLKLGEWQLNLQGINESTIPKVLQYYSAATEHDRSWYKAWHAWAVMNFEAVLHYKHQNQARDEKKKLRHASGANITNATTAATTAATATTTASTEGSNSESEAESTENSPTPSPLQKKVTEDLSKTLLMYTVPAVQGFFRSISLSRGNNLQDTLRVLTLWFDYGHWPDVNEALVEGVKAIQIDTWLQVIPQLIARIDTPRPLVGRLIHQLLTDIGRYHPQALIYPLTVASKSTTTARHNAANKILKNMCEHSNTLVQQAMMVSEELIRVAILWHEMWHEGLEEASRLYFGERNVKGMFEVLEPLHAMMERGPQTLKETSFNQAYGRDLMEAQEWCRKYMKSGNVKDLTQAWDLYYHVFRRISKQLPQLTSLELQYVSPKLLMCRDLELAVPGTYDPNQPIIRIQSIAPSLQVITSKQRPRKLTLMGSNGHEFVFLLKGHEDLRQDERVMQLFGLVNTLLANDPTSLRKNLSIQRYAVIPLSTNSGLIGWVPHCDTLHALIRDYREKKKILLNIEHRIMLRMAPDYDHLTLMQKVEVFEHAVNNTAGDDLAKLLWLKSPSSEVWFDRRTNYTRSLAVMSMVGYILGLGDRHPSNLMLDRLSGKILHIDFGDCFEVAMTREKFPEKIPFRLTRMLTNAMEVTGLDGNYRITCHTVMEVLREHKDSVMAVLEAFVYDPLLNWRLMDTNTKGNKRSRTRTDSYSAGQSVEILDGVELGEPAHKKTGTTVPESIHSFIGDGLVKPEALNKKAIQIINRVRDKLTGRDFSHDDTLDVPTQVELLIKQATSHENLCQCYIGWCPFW
T2 sequence (P42336 whole entry): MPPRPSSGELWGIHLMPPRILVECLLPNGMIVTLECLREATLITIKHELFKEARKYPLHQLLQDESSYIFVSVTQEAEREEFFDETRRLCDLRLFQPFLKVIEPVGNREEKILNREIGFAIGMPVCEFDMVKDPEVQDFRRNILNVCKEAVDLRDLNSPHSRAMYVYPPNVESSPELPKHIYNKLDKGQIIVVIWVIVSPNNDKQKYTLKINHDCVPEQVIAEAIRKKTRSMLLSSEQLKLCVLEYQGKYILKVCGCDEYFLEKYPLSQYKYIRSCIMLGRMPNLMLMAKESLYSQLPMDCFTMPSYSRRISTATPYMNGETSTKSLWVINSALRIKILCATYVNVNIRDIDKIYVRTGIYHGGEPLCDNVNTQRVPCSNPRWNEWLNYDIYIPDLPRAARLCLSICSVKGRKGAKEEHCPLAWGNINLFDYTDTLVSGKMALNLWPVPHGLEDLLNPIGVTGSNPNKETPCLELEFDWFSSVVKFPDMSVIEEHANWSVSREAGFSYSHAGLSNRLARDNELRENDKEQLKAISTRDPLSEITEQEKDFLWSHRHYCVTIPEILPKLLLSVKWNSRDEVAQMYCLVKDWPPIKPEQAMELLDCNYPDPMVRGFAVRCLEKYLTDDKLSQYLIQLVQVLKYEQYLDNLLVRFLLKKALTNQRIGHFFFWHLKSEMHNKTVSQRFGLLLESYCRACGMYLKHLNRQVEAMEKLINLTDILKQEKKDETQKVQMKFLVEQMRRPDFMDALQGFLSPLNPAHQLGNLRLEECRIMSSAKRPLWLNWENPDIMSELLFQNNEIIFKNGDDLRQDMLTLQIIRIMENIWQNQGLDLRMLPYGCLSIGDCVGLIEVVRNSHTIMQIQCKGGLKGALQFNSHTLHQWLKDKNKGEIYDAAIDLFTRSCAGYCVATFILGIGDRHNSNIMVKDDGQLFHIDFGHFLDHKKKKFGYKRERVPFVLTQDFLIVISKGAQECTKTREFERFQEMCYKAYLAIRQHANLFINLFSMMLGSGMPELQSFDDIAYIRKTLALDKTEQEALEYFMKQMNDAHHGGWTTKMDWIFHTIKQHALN
T2 sequence (P27986 whole entry partner): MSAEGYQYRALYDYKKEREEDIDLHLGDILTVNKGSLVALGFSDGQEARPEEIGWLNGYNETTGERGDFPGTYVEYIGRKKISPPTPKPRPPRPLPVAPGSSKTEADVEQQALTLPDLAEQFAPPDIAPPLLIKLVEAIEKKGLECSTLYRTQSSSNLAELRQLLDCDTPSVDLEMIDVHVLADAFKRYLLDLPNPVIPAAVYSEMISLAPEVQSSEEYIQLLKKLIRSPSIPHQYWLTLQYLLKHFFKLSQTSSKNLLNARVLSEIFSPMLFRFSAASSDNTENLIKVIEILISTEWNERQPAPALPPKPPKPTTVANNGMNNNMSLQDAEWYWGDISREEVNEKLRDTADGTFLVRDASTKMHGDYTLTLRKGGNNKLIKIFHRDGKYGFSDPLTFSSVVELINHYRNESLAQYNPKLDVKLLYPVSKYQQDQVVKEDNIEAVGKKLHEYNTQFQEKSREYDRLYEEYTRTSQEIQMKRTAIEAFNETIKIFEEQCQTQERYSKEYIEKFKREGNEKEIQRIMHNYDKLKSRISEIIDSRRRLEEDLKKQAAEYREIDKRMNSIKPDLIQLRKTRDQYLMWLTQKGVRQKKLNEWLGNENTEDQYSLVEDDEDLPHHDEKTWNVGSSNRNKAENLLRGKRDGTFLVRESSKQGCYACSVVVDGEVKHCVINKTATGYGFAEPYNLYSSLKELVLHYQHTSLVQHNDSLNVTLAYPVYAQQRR
T4 sequence (P42338 whole entry): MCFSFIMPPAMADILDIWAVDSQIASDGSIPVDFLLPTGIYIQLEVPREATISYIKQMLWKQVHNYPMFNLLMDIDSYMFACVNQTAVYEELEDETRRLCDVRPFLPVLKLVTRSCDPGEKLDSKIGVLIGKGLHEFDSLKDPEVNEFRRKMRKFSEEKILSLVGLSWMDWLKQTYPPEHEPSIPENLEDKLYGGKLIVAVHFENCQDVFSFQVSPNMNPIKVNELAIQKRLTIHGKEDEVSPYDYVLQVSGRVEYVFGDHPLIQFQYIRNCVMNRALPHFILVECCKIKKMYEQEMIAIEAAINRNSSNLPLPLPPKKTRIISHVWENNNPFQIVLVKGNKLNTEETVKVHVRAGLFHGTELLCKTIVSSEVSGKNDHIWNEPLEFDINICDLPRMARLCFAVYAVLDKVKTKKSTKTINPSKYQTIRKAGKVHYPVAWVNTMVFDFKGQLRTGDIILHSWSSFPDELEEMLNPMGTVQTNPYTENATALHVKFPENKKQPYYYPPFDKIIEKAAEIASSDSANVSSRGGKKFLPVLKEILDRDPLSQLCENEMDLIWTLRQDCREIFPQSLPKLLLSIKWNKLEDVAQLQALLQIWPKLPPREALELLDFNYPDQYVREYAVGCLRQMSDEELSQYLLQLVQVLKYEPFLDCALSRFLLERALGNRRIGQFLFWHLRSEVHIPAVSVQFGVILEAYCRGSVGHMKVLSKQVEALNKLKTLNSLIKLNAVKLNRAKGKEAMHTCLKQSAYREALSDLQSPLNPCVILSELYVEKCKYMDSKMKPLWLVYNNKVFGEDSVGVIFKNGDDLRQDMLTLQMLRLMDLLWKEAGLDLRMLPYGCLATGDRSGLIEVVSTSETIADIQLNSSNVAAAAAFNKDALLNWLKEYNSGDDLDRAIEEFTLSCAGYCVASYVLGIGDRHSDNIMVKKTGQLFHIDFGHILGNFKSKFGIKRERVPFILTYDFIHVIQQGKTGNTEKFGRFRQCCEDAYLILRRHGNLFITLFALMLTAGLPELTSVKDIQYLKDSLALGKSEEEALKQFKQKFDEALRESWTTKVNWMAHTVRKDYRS
T4 sequence (P27986 whole entry partner): as the sequence (P27986 whole entry partner) above

Turning to `CC(C)n1nc(-c2cc3cc(O)ccc3[nH]2)c2c(N)nccc21` [Compound 1], the IC50 (in general, the point on the concentration scale where inhibition reaches its midpoint) against mTORC was no more than 1 µM.

With `CC(C)n1nc(-c2ccc3onc(N)c3c2)c2c(N)nccc21` [Compound 2], the 50% inhibitory concentration (IC50) at mTORC and on PI3K α was greater than 1 µM throughout.

With `CC(C)n1nc(-c2cnc3[nH]ccc3c2)c2c(N)nccc21` [Compound 3], the 50% inhibitory concentration (IC50) on PI3K δ, at mTORC, against PI3K β and against PI3K α was greater than 1 µM in each case.

As for `CC(C)n1nc(-c2ccc3oc(N)nc3c2)c2c(N)nccc21` [Compound 4], the IC50 on mTORC is no more than 1 µM; against PI3K β, greater than 1 µM; against PI3K α it was greater than 1 µM.
